In US20230105212A1, “BIPHENYL DERIVATIVE INHIBITOR, PREPARATION METHOD THEREFOR AND USE THEREOF” (SHANGHAI HANSOH BIOMEDICAL CO., LTD., priority 2020, published 2023):
pIC50: −log10 of the molar value.

Experiments:
[1] = target: T1, PD-L1 protein on the surface of MC38-hPDL1 tumor cells (Homo sapiens, UniProt Q9NZQ7); experiment: Induction of endocytosis of PD-L1 on the surface of tumor cells (flow cytometry); type: cell-based; conditions: 16 hours incubation; for Emax: MC38-hPDL1 cells, read-out: MC38 maximum endocytosis rate; for pIC50: inducing endocytosis of PD-L1, MC38-hPDL1 cells, read-out: MC38 IC50
T1 construct: expressed in transfected cells; host or cells: MC38-hPDL1 (mouse colon cancer cells)
T1 sequence (Q9NZQ7 19-290): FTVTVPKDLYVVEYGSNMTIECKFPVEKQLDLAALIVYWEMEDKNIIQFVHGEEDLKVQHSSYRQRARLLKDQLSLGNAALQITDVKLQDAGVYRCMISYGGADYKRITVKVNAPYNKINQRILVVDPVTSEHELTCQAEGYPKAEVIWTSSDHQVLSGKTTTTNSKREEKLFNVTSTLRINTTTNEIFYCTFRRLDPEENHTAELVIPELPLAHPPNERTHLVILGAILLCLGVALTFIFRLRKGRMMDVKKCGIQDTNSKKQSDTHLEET
From the text: Test Embodiment 2. Test of the Activity of Compounds of the Present Disclosure on Inducing the Endocytosis of PD-L1 Protein on the Surface of Tumor Cells
Experimental purpose: The purpose of this test embodiment was to test the activity of the compound on inducing the endocytosis of PD-L1 on the surface of tumor cells.
Experimental method: In order to test the activity of the compound on inducing the endocytosis of PD-L1, in this experiment, the activity of the compound on inducing the endocytosis of PD-L1 was tested by detecting the change degree of PD-L1 on the tumor cell surface with fluorescently labeled anti-PD-L1 antibody, and the IC50 of activity of the compound on inducing the endocytosis of PD-L1 was obtained.
The mouse colon cancer cells MC38-hPDL1 with high expression of hPD-L1 were collected, and adjusted to a suitable density and plated in a 24-well plate, and placed in a 37° C., 5% CO2 incubator to adhere overnight. Compounds were prepared into different concentrations by medium and added to a 24-well plate, and a vehicle control well was set up. After the cells were incubated in a 37° C., 5% CO2 incubator for 16 hours, the 24-well plate was taken out, and MC38-hPDL1 cells with different treatments in the plate were collected. After the cells were washed once with FACS buffer (PBS containing 0.5% BSA), and the cells were prepared to an appropriate density with FACS buffer. PE Mouse Anti-Human CD274 antibody (BD Pharmingen #557924) was added, and the cells were shaken at room temperature and incubated for 30 minutes without light, then the cells were washed twice with FACS buffer, resuspended in 100 μL of PBS, and a flow cytometer was used to detect the fluorescent signal on the cell surface, and the isotype control was set as a negative control.
The endocytosis rate of the compounds was calculated from the fluorescence signals of different treatment groups, and the compound concentration and endocytosis rate were fitted by nonlinear regression using GraphPad Prism software, and IC50 values were obtained, as shown in Table 2.

[2] = target: T2, human PD-1/PD-L1 binding (Homo sapiens, UniProt Q9NZQ7); experiment: Inhibition of human PD-1/PD-L1 binding (TR-FRET/HTRF); conditions: TR-FRET, PD-L1-His and PD-1-Fc; read-out: PD-1/PD-L1 binding IC50
T2 construct: PD-L1-His protein (19 to 238 amino acids) (Abcam #ab167713); purchased Abcam (PD-L1-His); R&D (PD-1-Fc) ab167713; 1086-PD
T2 sequence (Q9NZQ7 19-238): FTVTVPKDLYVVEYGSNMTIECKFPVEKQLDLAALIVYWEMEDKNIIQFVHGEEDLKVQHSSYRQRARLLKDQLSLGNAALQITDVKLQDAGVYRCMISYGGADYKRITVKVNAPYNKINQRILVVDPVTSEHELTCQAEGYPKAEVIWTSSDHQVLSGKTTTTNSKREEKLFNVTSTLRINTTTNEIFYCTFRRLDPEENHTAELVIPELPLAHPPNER
From the text: Test Embodiment 1: Test of Inhibitory Effect of the Compounds of the Present Disclosure on Human PD-1/PD-L1 Binding
Experimental purpose: The purpose of this test embodiment was to measure the inhibitory activity of the compounds on human PD-1/PD-L1 binding.
Experimental reagents: Binding Domain diluent buffer was purchased from Cisbio Company, Cat. No.: 62DLBDDF; MAb Anti-6HIS Eu cryptate Gold was purchased from Cisbio Company with the article number of 61HI2KLA; PAb Anti Human IgG-XL665 was purchased from Cisbio Company with the article number of 61HFCXLB; PD-L1-His protein was purchased from Abcam Company with the article number of ab167713; PD-1-Fc protein was purchased from R&D Company with the article number of 1086-PD; Detection buffer was purchased from Cisbio Company with the article number of 62SDBRDD; 384-well plate was purchased from PerkinElmer Company with the article number of 6007290.
Experimental method: In order to test the inhibitory activity of the compounds on human PD-1/PD-L1 binding, the method of time-resolved fluorescence resonance energy transfer (TR-FRET) was used in this experiment to test the inhibition of the compounds on human PD-1/PD-L1 binding, and the half inhibitory concentration IC50 of inhibitory activity of the compounds on human PD-1/PD-L1 binding was obtained.
This experiment was performed in a 384-well plate with a total reaction volume of 20 μL. Compounds were diluted to different concentrations (10 μM or 1 μM starting, 3-fold dilution, 11 doses) using assay buffer Binding Domain diluent buffer (Cisbio #62DLBDDF), then PD-L1-His protein (19 to 238 amino acids) (Abcam #ab167713) was diluted to 10 nM with assay buffer, and PD-1-Fc protein (25 to 167 amino acids) (R&D #1086-PD) was diluted to 20 nM with assay buffer; the compound, PD-L1 protein and PD-1 protein were added to a 384-well plate respectively, and the total volume was 10 μL, then centrifuged at 1000 rpm for 1 minute to mix well, and incubated for 60 minutes at room temperature. Then 10 μL of a mixed solution of MAb Anti-6HIS Eu cryptate Gold (Cisbio #61HI2KLA) and PAb Anti Human IgG-XL665 (Cisbio #61HFCXLB) diluted by HTRF Detection buffer was added to each well, and centrifuged at 1000 rpm for 1 minute to mix well. The reaction was carried out at room temperature for 3 hours or at 4° C. overnight, then a microplate reader (BioTek Synergy H1) was put into for reading; the excitation wavelength was 340 nm, and the emission wavelengths were 620 nm and 665 nm.
The ratio of fluorescence readings at 620 nm and 665 nm (665 nm/620 nm) was calculated, and the inhibition rate was calculated.

| SMILES | Emax [1] [%] | pIC50 [1] | pIC50 [2] |
| --- | --- | --- | --- |
| COc1cc(NCc2cnc(C(=O)Nc3cccc(-c4cccc(NC(=O)c5nc6c(n5C)CCN(C)C6)c4Cl)c3C)cc2OC)ccn1 [Embodiment 1, N-(2-Chloro-3′-(4-methoxy-5-(((2-methoxypyridin-4-yl)amino)methyl)picolinamido)-2′-methyl-[1,1′-biphenyl]-3-yl)-1,5-dimethyl-4,5,6,7-tetrahydro-1H-imidazo[4,5-c]pyridine-2-carboxamide] | 88 | 8.47 | 8.16 |
| COc1cc(NCc2cnc(C(=O)Nc3cccc(-c4cccc(NC(=O)c5nc6c(n5C)CCN(C)C6)c4Cl)c3Cl)cc2OC)ccn1 [Embodiment 2, N-(2,2′-Dichloro-3′-(4-methoxy-5-(((2-methoxypyridin-4-yl)amino)methyl)picolinamido)-[1,1′-biphenyl]-3-yl)-1,5-dimethyl-4,5,6,7-tetrahydro-1H-imidazo[4,5-c]pyridine-2-carboxamide] | 89 | 8.34 | 8.30 |
| COc1cc(C(=O)Nc2cccc(-c3cccc(NC(=O)c4nc5c(n4C)CCN(C)C5)c3Cl)c2C)ncc1CNc1cc(C)ccn1 [Embodiment 11, N-(2-Chloro-3′-(4-methoxy-5-(((4-methylpyridin-2-yl)amino)methyl)picolinamido)-2′-methyl-[1,1′-biphenyl]-3-yl)-1,5-dimethyl-4,5,6,7-tetrahydro-1H-imidazo[4,5-c]pyridine-2-carboxamide] | 85 | 8.09 | 8.29 |
| COc1cc(C(=O)Nc2cccc(-c3cccc(NC(=O)c4nc5c(n4C)CCN(C)C5)c3Cl)c2C)ncc1CNCCF [Embodiment 18, N-(2-Chloro-3′-(5-(((2-fluoroethyl)amino)methyl)-4-methoxypicolinamido)-2′-methyl-[1,1′-biphenyl]-3-yl)-1,5-dimethyl-4,5,6,7-tetrahydro-1H-imidazo[4,5-c]pyridine-2-carboxamide] | 91 | 8.82 | 8.62 |
| COc1cc(C(=O)Nc2cccc(-c3cccc(NC(=O)c4nc5c(n4C)CCN(C)C5)c3Cl)c2C)ncc1CN[C@@H]1CCNC1=O [Embodiment 97, (R)—N-(2-Chloro-3′-(4-methoxy-5-(((2-carbonylpyrrolidin-3-yl)amino)methyl)picolinamido)-2′-methyl-[1,1′-biphenyl]-3-yl)-1,5-dimethyl-4,5,6,7-tetrahydro-1H-imidazo[4,5-c]pyridine-2-carboxamide] | – | – | 8.30 |
| COc1cc(C(=O)Nc2cccc(-c3cccc(NC(=O)c4nc5c(n4C)CCN(C)C5)c3Cl)c2C)ncc1CNC1CN(C(C)=O)C1 [Embodiment 100, N-(3′-(5-(((1-Acetylazetidin-3-yl)amino)methyl)-4-methoxypicolinamido)-2-chloro-2′-methyl-[1,1′-biphenyl]-3-yl)-1,5-dimethyl-4,5,6,7-tetrahydro-1H-imidazo[4,5-c]pyridine-2-carboxamide] | – | – | 8.22 |
| COc1cc(C(=O)Nc2cccc(-c3cccc(NC(=O)c4nc5c(n4C)CCN(C)C5)c3Cl)c2C)ncc1CN1CC2(COC2)CC1=O [Embodiment 104, N-(2-Chloro-3′-(4-methoxy-5-((7-carbonyl-2-oxa-6-azaspiro[3.4]octan-6-yl)methyl)picolinamido)-2′-methyl-[1,1′-biphenyl]-3-yl)-1,5-dimethyl-4,5,6,7-tetrahydro-1H-imidazo[4,5-c]pyridine-2-carboxamide] | – | – | 8.04 |
| Cc1nccc(NCc2ccc(C(=O)Nc3cccc(-c4cccc(NC(=O)c5nc6c(n5C)CCN(C)C6)c4Cl)c3C)nc2)c1F [Embodiment 105, N-(2-Chloro-3′-(5-(((3-fluoro-2-methylpyridin-4-yl)amino)methyl)picolinamido)-2′-methyl-[1,1′-biphenyl]-3-yl)-1,5-dimethyl-4,5,6,7-tetrahydro-1H-imidazo[4,5-c]pyridine-2-carboxamide] | – | – | 8.07 |
| Cc1c(NC(=O)c2ccc(CN3CC[C@@H](F)C3)cn2)cccc1-c1cccc(NC(=O)c2nc3c(n2C)CCN(C)C3)c1Cl [Embodiment 106, (R)—N-(2-Chloro-3′-(5-((3-fluoropyrrolidin-1-yl)methyl)picolinamido)-2′-methyl-[1,1′-biphenyl]-3-yl)-1,5-dimethyl-4,5,6,7-tetrahydro-1H-imidazo[4,5-c]pyridine-2-carboxamide] | – | – | 8.19 |
| COc1cc(CN2CC(F)C2)cnc1C(=O)Nc1cccc(-c2cccc(NC(=O)c3nc4c(n3C)CCN(C)C4)c2Cl)c1C [Embodiment 108, N-(2-Chloro-3′-(5-((3-fluoroazetidin-1-yl)methyl)-3-methoxypicolinamido)-2′-methyl-[1,1′-biphenyl]-3-yl)-1,5-dimethyl-4,5,6,7-tetrahydro-1H-imidazo[4,5-c]pyridine-2-carboxamide] | – | – | 8.08 |
| COc1cc(CN[C@@H]2CCOC[C@@H]2F)cnc1C(=O)Nc1cccc(-c2cccc(NC(=O)c3nc4c(n3C)CCN(C)C4)c2Cl)c1C [Embodiment 109, N-(2-Chloro-3′-(5-((((3R,4R)-3-fluorotetrahydro-2H-pyran-4-yl)amino)methyl)-3-methoxypicolinamido)-2′-methyl-[1,1′-biphenyl]-3-yl)-1,5-dimethyl-4,5,6,7-tetrahydro-1H-imidazo[4,5-c]pyridine-2-carboxamide] | – | – | 8.33 |
| CNC(=O)CNCc1ccc(-c2cccc(-c3cccc(NC(=O)c4nc5c(n4C)CCN(C)C5)c3Cl)c2Cl)nc1OC [Embodiment 140, N-(2,2′-Dichloro-3′-(6-methoxy-5-(((2-(methylamino)-2-carbonylethyl)amino)methyl)pyridin-2-yl)-[1,1′-biphenyl]-3-yl)-1,5-dimethyl-4,5,6,7-tetrahydro-1H-imidazo[4,5-c]pyridine-2-carboxamide] | – | – | 8.04 |
| COc1cc(-c2cccc(-c3cccc(NC(=O)c4nc5c(n4C)CCN(C)C5)c3Cl)c2Cl)cnc1CN1CC(F)C1 [Embodiment 163, N-(2,2′-Dichloro-3′-(6-((3-fluoroazetidin-1-yl)methyl)-5-methoxypyridin-3-yl)-[1,1′-biphenyl]-3-yl)-1,5-dimethyl-4,5,6,7-tetrahydro-1H-imidazo[4,5-c]pyridine-2-carboxamide] | – | – | 8.11 |
| COc1nc(OCc2cccc(-c3cccc(NC(=O)c4nc5c(n4C)CCN(C)C5)c3Cl)c2C)nc(OC)c1CN1CCCC[C@H]1C(=O)O [Embodiment 170, (S)-1-((2-((2′-Chloro-3′-(1,5-dimethyl-4,5,6,7-tetrahydro-1H-imidazo[4,5-c]pyridine-2-carboxamido)-2-methyl-[1,1′-biphenyl]-3-yl)methoxy)-4,6-dimethoxypyrimidin-5-yl)methyl)piperidine-2-carboxylic Acid] | – | – | 8.39 |
